{"source": "patent US5231091A", "about": "“Bis-arylphosphate ester antagonists of platelet activating factor” (priority 1992, dated 1993)", "system": "LPS induced gut leakage", "assay": "Endotoxin induced hemorragic lesions / LPS induced gut leakage in rats", "type": "in vivo, rat (male Wistar)", "conditions": "for % of control leakage (K), IV LPS induced gut leakage: ± SEM; for protection against LPS induced gut damage: IV LPS", "text": "One of the main sites of LPS induced pathology in the rat and guinea pig is the gut, particularly the duodenum, small intestine and cecum. After LPS exposure hemorragic lesions develop within a few minutes and can involve most of the lumenal surface. The extent of these pathologies can be quantitated histologically or by measuring the amount of plasma proteins that have leaked into the lumen. The second method is much faster and can detect damage in the junctions between capillary or intestinal epithelial cells before gross lesions have developed. Hot tags have shown plasma leakage after LPS challenge using radiolabeled albumin as the probe. In our assay we have chosen to use a non-radioactive tagging method in which plasma albumin is labeled with Evan's blue dye and the lumenal leakage is determined spectrophotometricly.\nEvan's blue dye: Sigma e-2129, made as a 1% w/v solution in saline which was filtered and kept refrigerated.\nFor each experiment fresh 3-[[3-[[hydroxy[2-methoxy-3-(tetradecyloxy)phenoxy]phosphinyl]oxy]phenyl]- methyl]-5-methyl-thiazolium, hydroxide, inner salt was sonicated into saline.\nLPS solutions were made fresh for each experiment.\nMale Wistar rats, obtained from Charles River, weighing 160-225 gm were maintained in accordance with ALAC standards for at least one week before use.\nFood was withheld from the animals for 18 hours before the experiment to clear the intestine. The rats were dosed with 3-[[3-[[hydroxy[2-methoxy-3-(tetradecyloxy)phenoxy]phosphinyl]oxy]phenyl]methyl]-5-methyl-thiazolium, hydroxide, inner salt or saline ip, 4 ml/kg, 1/2 hour before challenge with 25 or 50 mg/kg LPS in the 1% dye at 10 ml/kg. One hour after the LPS insult the animals were sacrificed and the duodenum and initial 6-7 cm of the jejunum isolated. This segment was lavaged with 2 ml of normal saline with the fluid flowing into polyethylene tubes. The lavageate frequently contained mucous and in order to free the stained albumin the samples were sonicated vigorously and then centrifuged to clarify the fluid. The amount of dye was determined spectrophotometrically, using a Vmax microtiter plate reader using the end point mode at […].", "note": "Where a name gives a salt, the structure may show the parent alone.", "data": [{"smiles": "CCCCCCCCCCCCCCOc1cccc(OP(=O)([O-])Oc2cccc(C[n+]3csc(C)c3)c2)c1OC", "note": "[3-[[3-[[Hydroxy[2-methoxy-3-(tetradecyloxy)phenoxy]-phosphinyl]oxy]phenyl]methyl]-5-methyl-thiazolium, hydroxide, inner salt]", "values": [{"measurement": "% of control leakage (K), IV LPS induced gut leakage", "setting": "0.125 mg/kg IP, Experiment 1", "result": "24 ± 15", "unit": "%"}, {"measurement": "% of control leakage (K), IV LPS induced gut leakage", "setting": "0.125 mg/kg IP, Experiment 2", "result": "107 ± 27", "unit": "%"}, {"measurement": "% of control leakage (K), IV LPS induced gut leakage", "setting": "0.25 mg/kg IP, Experiment 1", "result": "36 ± 23", "unit": "%"}, {"measurement": "% of control leakage (K), IV LPS induced gut leakage", "setting": "0.25 mg/kg IP, Experiment 2", "result": "65 ± 15", "unit": "%"}, {"measurement": "% of control leakage (K), IV LPS induced gut leakage", "setting": "0.5 mg/kg IP, Experiment 1", "result": "15 ± 10", "unit": "%"}, {"measurement": "% of control leakage (K), IV LPS induced gut leakage", "setting": "0.5 mg/kg IP, Experiment 2", "result": "16 ± 9", "unit": "%"}, {"measurement": "% of control leakage (K), IV LPS induced gut leakage", "setting": "1 mg/kg IP, Experiment 1", "result": "22 ± 15", "unit": "%"}, {"measurement": "% of control leakage (K), IV LPS induced gut leakage", "setting": "2 mg/kg IP, Experiment 1", "result": "10 ± 10", "unit": "%"}, {"measurement": "% of control leakage (K), IV LPS induced gut leakage", "setting": "2 mg/kg IP, Experiment 2", "result": "18 ± 24", "unit": "%"}, {"measurement": "% of control leakage (K), IV LPS induced gut leakage", "setting": "2 mg/kg IP, Experiment 3", "result": "27 ± 11", "unit": "%"}, {"measurement": "% of control leakage (K), IV LPS induced gut leakage", "setting": "20 mg/kg IP, Experiment 1", "result": "20 ± 2", "unit": "%"}, {"measurement": "% of control leakage (K), IV LPS induced gut leakage", "setting": "20 mg/kg IP, Experiment 2", "result": "19 ± 31", "unit": "%"}, {"measurement": "activity seen at doses as low as", "setting": "IP", "result": "1/2"}, {"measurement": "doses as low as (able to reduce or eliminate damage produced by IV LPS)", "setting": "IP one hour before challenge", "result": "1/2"}, {"measurement": "protection against LPS induced gut damage", "setting": "IP", "result": "able to reduce or eliminate the damage produced by IV LPS"}, {"measurement": "protection against LPS induced gut damage", "setting": "IP, listed as 3-[[3-[[hydroxy[2-methoxy-3-(tetradecyloxy)phenoxy]-phosphinyl]oxy]phenyl]-methy", "result": "very potent protection against the end point of gut pathophysiology"}, {"measurement": "direct observation of the intestinal tract of LPS challenged protected animals", "setting": "LPS challenge", "result": "nearly normal appearing guts"}, {"measurement": "minimal effective dose", "setting": "Rattus norvegicus, ip, read-out: doses as low as (prevents the gut manifestations of endotoxin shock), rats", "result": 0.25, "unit": "mg/kg"}, {"measurement": "diarrhea in LPS challenged treated animals", "setting": "virtually all control animals had severe diarrhea", "result": "little or none"}]}]}
